These results are taken from paper PMC8950868, “Identifying Human PTP1B Enzyme Inhibitors from Marine Natural Products: Perspectives for Developing of Novel Insulin-Mimetic Drugs” (Pharmaceuticals, 2022).

Common to all, as to assay type: biochemical
The target in assay [1] is T1, human recombinant PTP1B (1–302) (Homo sapiens, UniProt P18031).
T1 construct: human recombinant PTP1B (1–302)
T1 sequence (P18031 1-302): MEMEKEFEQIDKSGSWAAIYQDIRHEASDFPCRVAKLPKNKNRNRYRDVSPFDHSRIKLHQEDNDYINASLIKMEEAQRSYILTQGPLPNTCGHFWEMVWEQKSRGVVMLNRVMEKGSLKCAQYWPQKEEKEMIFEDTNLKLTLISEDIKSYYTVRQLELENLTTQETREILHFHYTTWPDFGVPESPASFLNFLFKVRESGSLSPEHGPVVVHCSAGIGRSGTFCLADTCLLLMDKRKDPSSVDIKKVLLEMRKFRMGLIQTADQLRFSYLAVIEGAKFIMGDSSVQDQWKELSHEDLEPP
The experiment in a line: PTP1B enzymatic assay (p-NPP hydrolysis; preliminary screening and IC50). Particulars: for Effect on PTP1B activity in preliminary screening: 20 µM of each compound, 30 min; for IC50: 2.5 mM p-NPP, pH 7.0, 37 °C, mean ± SD (n = 3), read-out: IC50 values determined on PTP1B. As to the method: We performed enzymatic assays as previously described. For each assay, an aliquot of human recombinant PTP1B (1–302) was added in the assay buffer (0.075 M β,β-dimethylglutarate pH 7.0 containing 1 mM EDTA, 0.1 mM DTT and a p-nitrophenylphosphate (p-NPP) (Chemcruz, Santa Cruz Biotechnology (Santa Cruz, CA, USA)). The reactions were performed at 37 °C in a final volume of 1 mL. After adequate time (30 min) of incubation, the reactions were stopped adding 2 mL of 0.1 M KOH in each sample. The released amount of p-nitrophenol, product of the reaction, was determined by measuring the absorbance at 400 nm in a 1 cm pathlength cuvette.
The IC50 value of compounds against PTP1B was determined by measuring the hydrolysis rate of the enzyme in the presence of a fixed substrate concentration (2.5 mM p-NPP) and increasing inhibitor concentrations (generally 14–16 different concentrations). Each test was carried out in triplicate. Experimental data were normalized respect to control samples and then fitted using a non-linear fitting software, using the following equation: Vi/V0=Max−Min/1+x/IC50^slope+Min where the Vi/V0 value represents the relative activity calculated in presence of each inhibitor concentration; the maximum and minimum value of the activity are represented by “Max” and “Min”, respectively; “x” is the concentration of the inhibitor; IC50 is the inhibitor concentration able to decrease the enzymatic activity up to 50%; “slope” represents the slope of the curve in the transition zone.
Figure 2 Preliminary screening assay on PTP1B. All assays were started by diluting an aliquot of PTP1B in the assay solution containing substrate alone (control test) or substrate and an aliquot of each compound (20 µM, final concentration). After 30 min, the reactions were stopped by adding a concentrated KOH solution. The enzyme activity was determined by measuring the amount of p-nitrophenol that was released in each sample using a spectrophotometer. Data obtained were normalized respect to control sample. […] Statistical analysis was carried out using one way ANOVA followed by Tukey’s HSD test for pairwise comparisons. Statistics have been drawn on raw data and compare samples to control (Ctr). * p < 0.05; ** p < 0.01.
Figure 3 Determination of the IC50 values with compounds 3, 8a, 8b, 9a and 9b. An aliquot of PTP1B enzyme was diluted in the presence of increasing concentration of the compounds. The activity of PTP1B was determined by measuring the absorbance of the sample at 400 nm, using a spectrophotometer. Data obtained were normalized respect to the control sample and analysed using a non-linear fitting software.

Assay [2] addresses T2, PTP1B (Homo sapiens, UniProt P18031).
T2 construct: human recombinant PTP1B (1–302)
T2 sequence (P18031 1-302): T1 sequence (P18031 1-302)
The experiment in a line: Dilution (reversibility) assay with PTP1B. Particulars: 50 µM, 1 h at 37 °C, then diluted 500 fold. Here is the method:
A dilution test was carried out to evaluate if the compound behaves as reversible or irreversible inhibitor of PTP1B. Briefly, an aliquot of the enzyme was diluted with different concentration of inhibitor and the samples incubated at 37 °C for 1 h. After this time, an aliquot of these samples was diluted 500 times in the assay buffer containing 2.5 mM p-NPP, to evaluate whether the enzyme is able to recover its activity since the final concentration of inhibitor is now far away from its IC50 value. Control test was carried out diluting the enzyme with an equal volume of deionised water. All tests were performed in triplicate.
Figure 4 Dilution assay. To evaluate the mechanism of action of the compounds, a reversibility assay was carried out. The PTP1B was incubated in the presence of the saturating concentration of each compound (50 µM) for 1 h at 37 °C. Then, an aliquot of enzyme was diluted 500 folds in the assay buffer to evaluate the residual activity of the enzyme. Tests were carried out in triplicate. Data represent the mean value ± SD.

Assay [3] concerns the target T2, PTP1B. The experiment in a line: Determination of the mechanism of inhibition on PTP1B (KM, Vmax, Lineweaver-Burk, secondary plots). Particulars: for α: Ki′ = αKi; for Ki′: from 1/Vmax versus inhibitor concentration (Ki′ = αKi); for Ki: from KM/Vmax versus inhibitor concentration. As to the method:
The inhibitory mechanism of tested compounds was determined studying the dependence between the main kinetics parameters (KM and Vmax) and the inhibitors concentrations. Briefly, KM and Vmax values were calculated measuring the hydrolysis rate of PTP1B in the absence/presence of different inhibitor concentrations, while increasing substrate content. Data obtained were fitted using Michaelis-Menten equation and a non-linear fitting software. Then, data were analysed using the double reciprocal plot (Lineweaver-Burk method).
Figure 5 Kinetic characterization of 3 as PTP1B inhibitor. […] Dependence of main kinetic parameters KM (A) and Vmax (B) from the concentration of compound 3. Lineweaver-Burk plot (C). Bars represent the standard deviations of the means from at least three independent measurements (if not present, they are within the symbol’s size). […] E, free enzyme; S, substrate; ES, enzyme-substrate complex; EI, enzyme-inhibitor complex; ESI the enzyme-substrate-inhibitory ternary complex; Ks, dissociation constant of the enzyme-substrate complex; Ki, dissociation constant of EI complex; αKs and αKi, dissociation constant of enzyme-substrate-inhibitor complex (α > 1).
Figure 6 Secondary plots. KM/Vmax (A) and 1/Vmax (B) versus the inhibitor concentration, respectively. The intercept of straight line with the “x” axis in Panel A, represents the Ki value, while the intercept of straight line with the “x” axis in Panel B represents the Ki′ value (Ki′ = αKi).
Figure 7 Kinetic characterization of 8a as PTP1B inhibitor. […] Dependence of KM (A) and Vmax (B) from the inhibitor concentration. Lineweaver-Burk graph (C). Bars represent the standard deviations of the means from at least three independent measurements (if not present, they are within the symbol’s size). Secondary plots: KM/Vmax (D) and 1/Vmax (E) versus the inhibitor concentration, respectively. The intercept of straight line with the “x” axis in Figure D represents the Ki value, while the intercept of straight line with the “x” axis in Figure E represents the Ki′ value (Ki′ = αKi).

A word on the IC50: it is the concentration at which inhibition is half-maximal. One may read the Ki as a measure of affinity in units of concentration, obtained from inhibition or displacement. For the compound `CCCCC[C@@H](OP(=O)(O)O)[C@@H](O)CC[C@H](CCCC)OC(C)=O` (relative stereo) [Compound 8a], in assay [1], the “Effect on PTP1B activity in preliminary screening” value is listed as “reducing PTP1B activity” and the IC50 came to 16 ± 2 µM. Further, at PTP1B [2], the “Reversibility of PTP1B inhibition” value is “reversible inhibitors”. Further, on PTP1B [3], the “Inhibitory mechanism on PTP1B” value is “mixed type inhibitor”, the α came out at 1.6 ± 0.1, the “Ki′” value is 5.4 ± 0.2 µM and the Ki worked out at 3.3 ± 0.4 µM.
Turning to `CCCCCCCCCCCCCCC(OP(=O)(O)O)C(O)CCCO` (centres unmarked) [Compound 3], in assay [1], the “Effect on PTP1B activity in preliminary screening” value is on record as “reducing PTP1B activity” and the IC50 worked out at 6.7 ± 3.3 µM. The “Reversibility of PTP1B inhibition” value on PTP1B [2] is “reversible inhibitors”. Moreover, on PTP1B [3], the “Inhibitory mechanism on PTP1B” value is recorded as “linear mixed-type inhibitor”, the α was determined as 1.4 ± 0.2, the “Ki′” value is 9.4 ± 0.6 µM and the Ki is 6.6 ± 0.8 µM.
